The values below come from patent US10301317B2, “Inhibitors of ERK and methods of use” (Kura Oncology, Inc., priority 2013, dated 2019).

Some results are limits rather than exact numbers.

The subject of one assay is phospho-p90 RSK (RSK1 Thr359/Ser363) in A375 (Braf V600E) cells. Kind of assay: Phospho-p90 RSK ELISA using A375 (Braf V600E) cells. The assay is classed as cell-based. As to conditions: Homo sapiens, A-375, 2 hours compound treatment, read-out: Cellular Phospho-p90RSK IC50.
Regarding `Cc1cc(-c2n[nH]c3cc4c(cc23)CN([C@H](CO)c2cccc(Cl)c2)C(=O)N4)ccn1` [Example 26], the IC50 is at most 250 nM.
On the same count and under the same terms, next, `Cc1cc(-c2n[nH]c3cc4[nH]c(=O)n(Cc5ccccc5)c(=O)c4cc23)ccn1` [Example 27]: 250 to 1000 nM.
For the compound `Cc1cc(-c2n[nH]c3cc4c(cc23)CN(Cc2ccc(F)cc2)C(=O)N4)ccn1` [Example 30], the IC50 was at most 250 nM.
Consider `Cn1cc(-c2n[nH]c3cc4c(cc23)CN(Cc2ccc(F)c(Cl)c2)C(=O)N4)cn1` [Example 31], for which the IC50 was at most 250 nM.
Turning to `Cc1cc(-c2n[nH]c3cc4c(cc23)CN([C@@H]2CCCNC2)C(=O)N4)ccn1` [Example 32], the IC50 was above 1000 nM.
As for `Cc1cc(-c2n[nH]c3cc4c(cc23)CN([C@@H]2CCCN(C)C2)C(=O)N4)ccn1` [Example 33], the IC50 is above 1000 nM.
In the case of `Cc1cc(-c2n[nH]c3cc4c(cc23)CN(C2CCNCC2)C(=O)N4)ccn1` [Example 34], the IC50 was above 1000 nM.
For the compound `Cc1cc(-c2n[nH]c3cc4c(cc23)CN([C@H](C)c2cccc(Cl)c2)C(=O)N4)ccn1` [Example 35], the IC50 is at most 250 nM.
With `COc1ccc(-c2n[nH]c3cc4c(cc23)CN(Cc2ccc(F)c(Cl)c2)C(=O)N4)cn1` [Example 36], the IC50 lay in the range of 250 to 1000 nM.
In the case of `COc1ncc(-c2n[nH]c3cc4c(cc23)CN(Cc2ccc(F)c(Cl)c2)C(=O)N4)cn1` [Example 37], the IC50 was at most 250 nM.
The same measure, in the same setting: as for `Cc1cc(-c2n[nH]c3cc4c(cc23)CN(Cc2ccc(C#N)cc2)C(=O)N4)ccn1` [Example 39], the figure is 250 to 1000 nM; as for `Cn1cc(-c2n[nH]c3cc4c(cc23)CN(Cc2ccc(F)c(Cl)c2)C(=O)N4)ccc1=O` [Example 41], at most 250 nM.
With `Cc1cc(-c2n[nH]c3cc4c(cc23)CN(Cc2cscn2)C(=O)N4)ccn1` [Example 47], the IC50 was in the range of 250 to 1000 nM.
In the case of `Cc1cc(-c2n[nH]c3cc4c(cc23)CN([C@@H]2CCCOC2)C(=O)N4)ccn1` [Example 49], the IC50 lay within 250 to 1000 nM.
For the compound `Cc1cc(-c2n[nH]c3cc4c(cc23)CN([C@@H]2CCCN(Cc3ccccc3)C2)C(=O)N4)ccn1` [Example 63], the IC50 was at most 250 nM.
Turning to `CCC(c1ccccc1)c1cc2cc3c(-c4ccnc(C)c4)n[nH]c3cc2[nH]c1=O` (stereo not drawn) [Example 64], the IC50 was at most 250 nM.
On the same count and under the same terms, next, `COc1ncc(-c2n[nH]c3cc4c(cc23)CN(Cc2cccc(Cl)c2)C(=O)N4)cn1` [Example 68]: at most 250 nM; `Cc1cc(-c2n[nH]c3cc4c(cc23)CN(Cc2cccc(Cl)c2)C(=O)N4)cc(C)n1` [Example 77]: at most 250 nM; `Cc1cc(-c2n[nH]c3cc4c(cc23)CN([C@@H]2CCN(c3ccc(F)cn3)C2)C(=O)N4)ccn1` [Example 257]: 250 to 1000 nM.
For the compound `Cc1cc(-c2n[nH]c3cc4c(cc23)CN([C@H]2CN(Cc3ccccc3)CC(F)(F)C2)C(=O)N4)ccn1` [Example 264], the IC50 is at most 250 nM.
On the same count and under the same terms, as for `Cc1cc(-c2n[nH]c3cc4c(cc23)CN([C@@H]2CCN(C(C)C(F)(F)F)C2)C(=O)N4)ccn1` (stereo partly drawn) [Example 267], the figure is at most 250 nM.
Turning to `C=C(c1ccccc1)c1cc2cc3c(-c4ccnc(C)c4)n[nH]c3cc2[nH]c1=O` [Example 269], the IC50 is at most 250 nM.
With `COc1cc(-c2n[nH]c3cc4c(cc23)CN([C@@H]2CCCN(Cc3ccccc3)C2)C(=O)N4)ccn1` [Example 270], the IC50 is at most 250 nM.
Take `COc1cc(-c2n[nH]c3cc4c(cc23)CN([C@@H]2CCCN(Cc3ccc(F)cc3F)C2)C(=O)N4)ccn1` [Example 271]: the IC50 is at most 250 nM.

The test system of the next assay is A375 cells. Kind of assay: Tumor cell line proliferation assay (CellTiter Glo), A375. The assay is classed as cell-based. As to conditions: Homo sapiens, A-375, 96 h, read-out: A375 (V599E) Cell Proliferation IC50.
Regarding `Cc1cc(-c2n[nH]c3cc4c(cc23)CN([C@H](CO)c2cccc(Cl)c2)C(=O)N4)ccn1` [Example 26], the IC50 lay within 250 to 1000 nM.
On the same count and under the same terms, as for `Cc1cc(-c2n[nH]c3cc4[nH]c(=O)n(Cc5ccccc5)c(=O)c4cc23)ccn1` [Example 27], the figure is above 1000 nM.
With `Cc1cc(-c2n[nH]c3cc4c(cc23)CN(Cc2ccc(F)cc2)C(=O)N4)ccn1` [Example 30], the IC50 is 250 to 1000 nM.
For the compound `Cn1cc(-c2n[nH]c3cc4c(cc23)CN(Cc2ccc(F)c(Cl)c2)C(=O)N4)cn1` [Example 31], the IC50 fell in the range of 250 to 1000 nM.
In the case of `Cc1cc(-c2n[nH]c3cc4c(cc23)CN([C@@H]2CCCNC2)C(=O)N4)ccn1` [Example 32], the IC50 is above 1000 nM.
On to `Cc1cc(-c2n[nH]c3cc4c(cc23)CN([C@@H]2CCCN(C)C2)C(=O)N4)ccn1` [Example 33], for which the IC50 was above 1000 nM.
As to `Cc1cc(-c2n[nH]c3cc4c(cc23)CN(C2CCNCC2)C(=O)N4)ccn1` [Example 34], the IC50 is above 1000 nM.
As to `Cc1cc(-c2n[nH]c3cc4c(cc23)CN([C@H](C)c2cccc(Cl)c2)C(=O)N4)ccn1` [Example 35], the IC50 was in the range of 250 to 1000 nM.
On to `COc1ccc(-c2n[nH]c3cc4c(cc23)CN(Cc2ccc(F)c(Cl)c2)C(=O)N4)cn1` [Example 36], for which the IC50 fell in the range of 250 to 1000 nM.
The same measure, in the same setting: next, `COc1ncc(-c2n[nH]c3cc4c(cc23)CN(Cc2ccc(F)c(Cl)c2)C(=O)N4)cn1` [Example 37]: 250 to 1000 nM; `Cc1cc(-c2n[nH]c3cc4c(cc23)CN(Cc2ccc(C#N)cc2)C(=O)N4)ccn1` [Example 39]: above 1000 nM; `Cn1cc(-c2n[nH]c3cc4c(cc23)CN(Cc2ccc(F)c(Cl)c2)C(=O)N4)ccc1=O` [Example 41]: 250 to 1000 nM.
Consider `Cc1cc(-c2n[nH]c3cc4c(cc23)CN(Cc2cscn2)C(=O)N4)ccn1` [Example 47], for which the IC50 was above 1000 nM.
Turning to `Cc1cc(-c2n[nH]c3cc4c(cc23)CN([C@@H]2CCCOC2)C(=O)N4)ccn1` [Example 49], the IC50 was above 1000 nM.
Still for that read-out and setting: as for `Cc1cc(-c2n[nH]c3cc4c(cc23)CN([C@@H]2CCCN(Cc3ccccc3)C2)C(=O)N4)ccn1` [Example 63], the figure is at most 250 nM.
For `CCC(c1ccccc1)c1cc2cc3c(-c4ccnc(C)c4)n[nH]c3cc2[nH]c1=O` (stereo not drawn) [Example 64], the IC50 is at most 250 nM.
`COc1ncc(-c2n[nH]c3cc4c(cc23)CN(Cc2cccc(Cl)c2)C(=O)N4)cn1` [Example 68]: the IC50 is at most 250 nM.
Turning to `Cc1cc(-c2n[nH]c3cc4c(cc23)CN(Cc2cccc(Cl)c2)C(=O)N4)cc(C)n1` [Example 77], the IC50 was at most 250 nM.
Turning to `Cc1cc(-c2n[nH]c3cc4c(cc23)CN([C@@H]2CCN(c3ccc(F)cn3)C2)C(=O)N4)ccn1` [Example 257], the IC50 was above 1000 nM.
`Cc1cc(-c2n[nH]c3cc4c(cc23)CN([C@H]2CN(Cc3ccccc3)CC(F)(F)C2)C(=O)N4)ccn1` [Example 264]: the IC50 was at most 250 nM.
On the same count and under the same terms, next, `Cc1cc(-c2n[nH]c3cc4c(cc23)CN([C@@H]2CCN(C(C)C(F)(F)F)C2)C(=O)N4)ccn1` (stereo partly drawn) [Example 267]: at most 250 nM; `C=C(c1ccccc1)c1cc2cc3c(-c4ccnc(C)c4)n[nH]c3cc2[nH]c1=O` [Example 269]: at most 250 nM.
On the same count and under the same terms, next, `COc1cc(-c2n[nH]c3cc4c(cc23)CN([C@@H]2CCCN(Cc3ccccc3)C2)C(=O)N4)ccn1` [Example 270]: at most 250 nM; `COc1cc(-c2n[nH]c3cc4c(cc23)CN([C@@H]2CCCN(Cc3ccc(F)cc3F)C2)C(=O)N4)ccn1` [Example 271]: at most 250 nM.

A further assay concerns H358 (Kras, G12C) cells. Kind of assay: Tumor cell line proliferation assay (CellTiter Glo), H358. As to conditions: Homo sapiens, NCI-H358, 96 hours. It counts as cell-based. Background: In ATP-based viability assays light output follows the ATP content of the culture.
`Cc1cc(-c2n[nH]c3cc4c(cc23)CN([C@H](CO)c2cccc(Cl)c2)C(=O)N4)ccn1` [Example 26] registered an IC50 above 1000 nM.
`Cc1cc(-c2n[nH]c3cc4[nH]c(=O)n(Cc5ccccc5)c(=O)c4cc23)ccn1` [Example 27] displayed an IC50 above 1000 nM.
The compound `Cc1cc(-c2n[nH]c3cc4c(cc23)CN(Cc2ccc(F)cc2)C(=O)N4)ccn1` [Example 30] had an IC50 of 250 to 1000 nM.
Compound `Cn1cc(-c2n[nH]c3cc4c(cc23)CN(Cc2ccc(F)c(Cl)c2)C(=O)N4)cn1` [Example 31] showed an IC50 of 250 to 1000 nM.
`Cc1cc(-c2n[nH]c3cc4c(cc23)CN([C@@H]2CCCNC2)C(=O)N4)ccn1` [Example 32]: the IC50 is above 1000 nM.
As for `Cc1cc(-c2n[nH]c3cc4c(cc23)CN([C@@H]2CCCN(C)C2)C(=O)N4)ccn1` [Example 33], the IC50 is above 1000 nM.
As for `Cc1cc(-c2n[nH]c3cc4c(cc23)CN(C2CCNCC2)C(=O)N4)ccn1` [Example 34], the IC50 is above 1000 nM.
As to `Cc1cc(-c2n[nH]c3cc4c(cc23)CN([C@H](C)c2cccc(Cl)c2)C(=O)N4)ccn1` [Example 35], the IC50 is at most 250 nM.
Turning to `COc1ccc(-c2n[nH]c3cc4c(cc23)CN(Cc2ccc(F)c(Cl)c2)C(=O)N4)cn1` [Example 36], the IC50 is 250 to 1000 nM.
The compound `COc1ncc(-c2n[nH]c3cc4c(cc23)CN(Cc2ccc(F)c(Cl)c2)C(=O)N4)cn1` [Example 37] registered an IC50 of 250 to 1000 nM.
Consider `Cc1cc(-c2n[nH]c3cc4c(cc23)CN(Cc2ccc(C#N)cc2)C(=O)N4)ccn1` [Example 39], for which the IC50 was in the range of 250 to 1000 nM.
Compound `Cn1cc(-c2n[nH]c3cc4c(cc23)CN(Cc2ccc(F)c(Cl)c2)C(=O)N4)ccc1=O` [Example 41] returned an IC50 of 250 to 1000 nM.
Same read-out and setting: as for `Cc1cc(-c2n[nH]c3cc4c(cc23)CN(Cc2cscn2)C(=O)N4)ccn1` [Example 47], the figure is above 1000 nM.
On the same count and under the same terms, as for `Cc1cc(-c2n[nH]c3cc4c(cc23)CN([C@@H]2CCCOC2)C(=O)N4)ccn1` [Example 49], the figure is above 1000 nM.
`Cc1cc(-c2n[nH]c3cc4c(cc23)CN([C@@H]2CCCN(Cc3ccccc3)C2)C(=O)N4)ccn1` [Example 63] yielded an IC50 of at most 250 nM.
Regarding `CCC(c1ccccc1)c1cc2cc3c(-c4ccnc(C)c4)n[nH]c3cc2[nH]c1=O` (stereo not drawn) [Example 64], the IC50 is at most 250 nM.
Compound `COc1ncc(-c2n[nH]c3cc4c(cc23)CN(Cc2cccc(Cl)c2)C(=O)N4)cn1` [Example 68] showed an IC50 of 250 to 1000 nM.
On to `Cc1cc(-c2n[nH]c3cc4c(cc23)CN(Cc2cccc(Cl)c2)C(=O)N4)cc(C)n1` [Example 77], for which the IC50 fell in the range of 250 to 1000 nM.
